In PMC11053489 (Viruses, 2024):
Read-outs that look alike come from different tables or passages of the source.

Columns and labels:
[1] = MTS cytotoxicity assay, Caco-2 cells; settings: human
[2] = MTS cytotoxicity assay, Calu-3 cells; settings: human
[3] = test system: SARS-CoV-2 (hCoV-19/USA-WA1/2020) in Calu-3 cells; experiment: microbe, parasite or virus in culture; type: cell-based; settings: for EC50: read-out: Calu-3 SARS-CoV-2 EC50; for EC90: read-out: Calu-3 SARS-CoV-2 EC90
[4] = MTS cytotoxicity assay, CEM cells; settings: human
[5] = MTS cytotoxicity assay, Vero CCL-81 cells; settings: African green monkey
[6] = MTS cytotoxicity assay, Huh-7 cells; settings: human
[7] = test system: SARS-CoV-2 (hCoV-19/USA-WA1/2020) in Vero CCL-81 cells; experiment: microbe, parasite or virus in culture; type: cell-based; settings: for EC50: read-out: Vero CCL-81 SARS-CoV-2 EC50; for EC90: read-out: Vero CCL-81 SARS-CoV-2 EC90
[8] = Peak plasma concentration
[9] = test system: SARS-CoV-2 (hCoV-19/USA-WA1/2020) in Caco-2 cells; experiment: microbe, parasite or virus in culture; settings: Severe acute respiratory syndrome coronavirus 2, Caco-2, 72 h; for EC50: read-out: Caco-2 SARS-CoV-2 EC50; for EC90: read-out: Caco-2 SARS-CoV-2 EC90
[10] = test system: SARS-CoV-2 (hCoV-19/USA-WA1/2020) in Caco-2 cells
[11] = MTS cytotoxicity assay, PBM cells; settings: human
[12] = cited from earlier work
[13] = test system: primary human peripheral blood mononuclear cells (PBM)
in vitro [14] = settings: African green monkey
in vitro [15] = settings: human, Caco-2
CCRF-CEM cells [16] = test system: CCRF-CEM cells
Huh-7 cells [17] = test system: Huh-7 cells
[18] = human, in vivo
in vitro [19] = settings: human
in vitro [20] = settings: human; remark: listed apart in the source
in vitro [21] = settings: human; remark: listed apart in the source
in vitro [22] = settings: human; remark: listed apart in the source
[23] = test system: COVID-19 / SARS-CoV-2 infection; settings: cited from earlier work
[24] = cited from earlier work; remark: listed apart in the source
[25] = African Green monkeys, oral; cited from earlier work
CCRF-CEM cells [26] = experiment: MTS cytotoxicity assay, CEM cells; settings: read-out: CEM CC50; 4 days
Huh-7 cells [27] = experiment: MTS cytotoxicity assay, Huh-7 cells; settings: read-out: Huh7 CC50; 4 days
[28] = test system: primary human peripheral blood mononuclear cells (PBM); experiment: MTS cytotoxicity assay, PBM cells; settings: read-out: PBM CC50; 5 days
[29] = Severe acute respiratory syndrome coronavirus 2, Calu-3, MOI 0.01, 72 h, 2% FBS
[30] = Severe acute respiratory syndrome coronavirus 2, Table 1 drugs, MOI 0.1, 48 h, 2% FBS
[31] = Table 1, ref column Refs of Table 1
[32] = Severe acute respiratory syndrome coronavirus 2, Calu-3, 72 h
[33] = Severe acute respiratory syndrome coronavirus 2, 48 h

Cc1ccc(-c2cc(C(F)(F)F)nn2-c2ccc(S(N)(=O)=O)cc2)cc1 [Celecoxib]
CC50 at 3 days [1]: 59.1 µM
CC50 at 3 days [2]: 70.5 µM
EC50 [3, 29]: 3 µM
EC90 [3, 29]: 6.3 µM
CC50 at 4 days [4]: 77.1 µM
CC50 at 3 days [5]: 50 µM
CC50 at 4 days [6]: 31.1 µM
EC50 [7, 30]: 7.2 µM
EC90 [7, 30]: 14.6 µM
Cmax (μM) {unbound} ([8]; human, in vivo): 0.056 µM
EC50 [9]: 0.7 µM
EC90 [9]: 1.2 µM
Caco-2 Unbound Cmax/EC50 ([10]; Cmax × Fun/EC50): 0.08
CC50 at 5 days [11]: > 100 µM

COC(=O)N[C@H](C(=O)N1CCC[C@H]1c1nc(-c2ccc(-c3ccc(-c4c[nH]c([C@@H]5CCCN5C(=O)[C@@H](NC(=O)OC)C(C)C)n4)cc3)cc2)c[nH]1)C(C)C [Daclatasvir]
EC50 [3, 29]: > 100 µM
Fun (unbound fraction of drug in plasma) [12, 31]: 0.01
PBM CC50 {Unbound} ([13]; human): 36.4 {29.2} μM
EC50 [7, 30]: 0.7 µM
EC90 [7, 30]: 3.5 µM
Vero CC50 {Unbound} (Vero CCL-81 cells; African green monkey): 50.6 {45.6} μM
CC50 (in vitro [14]): 50.6 µM
Cmax (μM) {unbound} ([8]; Table 1, Cmax × Fun): 0.02 µM
EC50 [9]: 44.7 µM
EC90 [9]: 89.4 µM
Caco-2 Unbound Cmax/EC50 ([10]; Caco-2): 0.0005
CC50 (in vitro [15]): 67.6 µM
CEM CC50 {Unbound} (CCRF-CEM cells [16]; human): 26.2 {23.6} μM
Huh7 CC50 {Unbound} (Huh-7 cells [17]; human): 53.6 {48.3} μM

O=c1c2ccccc2[se]n1-c1ccccc1 [Ebselen]
Cmax (μM) {unbound} [18]: 0.013 µM
EC50 [3, 32]: 6.5 µM
EC90 [3, 32]: > 10 µM
Fun (unbound fraction of drug in plasma) ([12]; plasma): 0.05
PBM CC50 {Unbound} ([13]; human, 5 days): 75.5 µM
CC50 at 3 days (in vitro [19]): > 100 µM
CC50 at 5 days (in vitro [20]): 93.2 µM
EC50 [7, 33]: 1.1 µM
EC90 [7, 33]: 2.7 µM
Vero CC50 {Unbound} (Vero CCL-81 cells; African green monkey, 3 days): 20.3 µM
CC50 at 3 days (in vitro [14]): 22.4 µM
EC50 [9]: > 100 µM
CC50 at 3 days (in vitro [15]): > 100 µM
CEM CC50 {Unbound} (CCRF-CEM cells [16]; human, 4 days): 42.3 µM
Huh7 CC50 {Unbound} (Huh-7 cells [17]; human, 4 days): 76.3 µM

NC(=O)c1nc(F)c[nH]c1=O [Favipiravir]
CC50 at 4 days (in vitro [21]): > 100 µM
Cmax (μM) {unbound} [18]: 193 µM
EC50 [3, 29]: > 300 µM
CC50 at 3 days (in vitro [19]): > 300 µM
CC50 at 5 days (in vitro [20]): > 100 µM
CC50 at 4 days (in vitro [22]): > 100 µM
EC50 [7, 30]: 90.6 µM
EC90 [7, 30]: 234 µM
CC50 at 3 days (in vitro [14]): > 100 µM
EC50 [9]: 256 µM
EC90 [9]: > 300 µM
Caco-2 Unbound Cmax/EC50 ([10]; Caco-2): 0.74
CC50 at 3 days (in vitro [15]): > 300 µM

CC(C)OC(=O)C(C)(C)Oc1ccc(C(=O)c2ccc(Cl)cc2)cc1 [Fenofibrate]
CC50 at 3 days [1]: > 100 µM
CC50 at 3 days [2]: ≥ 100 µM
anti-SARS-CoV-2 activity in Calu-3 cells (in words) ([3]; tested up to 100 μM): inactive
CC50 at 4 days ([4]; CEM CC50, 4 days): 28.5 µM
CC50 at 3 days [5]: > 100 µM
CC50 at 4 days [6]: > 100 µM
Cmax (μM) {unbound} ([8]; human, in vivo): 0.28 µM
anti-SARS-CoV-2 activity in Caco-2 cells (in words) ([10]; tested up to 100 μM): inactive
CC50 at 5 days [11]: 38.9 µM

COCCCC/C(=N\OCCN)c1ccc(C(F)(F)F)cc1 [Fluvoxamine (maleate)]
CC50 at 3 days [1]: > 100 µM
CC50 at 3 days [2]: > 100 µM
EC50 [3, 29]: > 100 µM
Fun (unbound fraction of drug in plasma) [12, 31]: 0.23
CC50 at 4 days ([4]; CEM CC50, 4 days): 20 µM
CC50 at 3 days [5]: 35.5 µM
CC50 at 4 days [6]: 36.7 µM
EC50 [7, 30]: > 100 µM
anti-SARS-CoV-2 activity (in words), concentrations up to 100 μM ([7]; Vero CCL-81 cells, up to 100 μM): inactive
Cmax (μM) {unbound} ([8]; human, in vivo): 0.003 µM
EC50 [9]: 17.9 µM
EC90 [9]: 47.5 µM
Caco-2 Unbound Cmax/EC50 ([10]; Cmax × Fun/EC50): 0.0017
CC50 at 5 days [11]: 35.4 µM

Cc1cccc(Nc2ccccc2C(=O)O)c1C [Mefenamic acid]
CC50 at 3 days [1]: > 100 µM
CC50 at 3 days [2]: > 100 µM
EC50 [3, 29]: > 100 µM
Fun (unbound fraction of drug in plasma) [12, 31]: 0.1
CC50 at 4 days [4]: > 100 µM
higher probability of achieving patient-acceptable symptoms on day 8 ([23]; with standard medical care versus placebo plus standard care, 38 ambulatory individuals): about 16 fold
CC50 at 3 days [5]: > 100 µM
CC50 at 4 days [6]: > 100 µM
EC50 [7, 30]: 87.6 µM
EC90 [7, 30]: > 100 µM
Cmax (μM) {unbound} ([8]; human, in vivo): 1.58 µM
EC50 [9]: > 100 µM
CC50 at 5 days [11]: > 100 µM

O=c1nc(NO)ccn1[C@@H]1O[C@H](CO)[C@@H](O)[C@H]1O [NHC, β-D-N4-hydroxycytidine]
plasma t1/2 ([24]; in vivo, iv): 3.3 h
CC50 (Caco-2 cells): > 100 µM
CC50 [13]: 59.8 µM
CC50 (Vero CCL-81 cells): 18.8 µM
CC50 (Calu-3 cells): > 100 µM
CC50 (Huh-7 cells [17]): 59.1 µM

CC(C)(C)[C@H](NC(=O)C(F)(F)F)C(=O)N1C[C@H]2[C@@H]([C@H]1C(=O)N[C@H](C#N)C[C@@H]1CCNC1=O)C2(C)C [Nirmatrelvir]
CC50 (in vitro [21]): > 100 µM
EC50 [3, 32]: 1.8 µM
EC90 [3, 32]: 8.8 µM
Fun (unbound fraction of drug in plasma) [12, 31]: 0.31
CC50 (in vitro [19]): > 100 µM
CC50 (in vitro [20]): > 100 µM
CC50 (in vitro [22]; CEM CC50, 4 days): > 100 µM
EC50 [7, 33]: 3.7 µM
EC90 [7, 33]: 5.6 µM
CC50 (in vitro [14]): > 100 µM
Cmax (μM) {unbound} ([8]; Table 1, Cmax × Fun): 2.13 µM
EC50 [9]: 0.1 µM
EC90 [9]: 0.3 µM
Caco-2 Unbound Cmax/EC50 ([10]; Caco-2): 6.8
CC50 (in vitro [15]): > 100 µM

CCC(CC)COC(=O)[C@H](C)N[P@](=O)(OC[C@H]1O[C@@](C#N)(c2ccc3c(N)ncnn23)[C@H](O)[C@@H]1O)Oc1ccccc1 [Remdesivir]
fraction of orally administered drug entering the systemic circulation intact [25]: < 1%
plasma t1/2 ([24]; remdesivir following IV infusion): ~ 1 h
EC50 [3, 29]: 0.2 µM
EC90 [3, 29]: 0.7 µM
Fun (unbound fraction of drug in plasma) [12, 31]: 0.12
shortening of hospitalization duration ([23]; IV remdesivir, hospitalized patients with COVID-19, ACTT-1 trial): 5 days
reduction in hospitalizations ([23]; IV, 3-day course, high-risk non-hospitalized patients, PINETREE trial): 87%
EC50 [7, 30]: 3.2 µM
EC90 [7, 30]: 4.7 µM
CC50 (in vitro [14]): > 100 µM
Cmax (μM) {unbound} ([8]; Table 1, Cmax × Fun): 0.44 µM
EC50 [9]: 0.02 µM
EC90 [9]: 0.1 µM
Caco-2 Unbound Cmax/EC50 ([10]; Caco-2): 22
CC50 (in vitro [15]): > 100 µM

CC(c1cc2ccccc2s1)N(O)C(N)=O (stereo not drawn) [Zileuton]
CC50 at 4 days (in vitro [21]): > 100 µM
Cmax (μM) {unbound} [18]: 0.16 µM
EC50 [3, 29]: > 100 µM
Fun (unbound fraction of drug in plasma) [12, 31]: 0.07
CC50 at 3 days (in vitro [19]): 46.7 µM
CC50 at 5 days (in vitro [20]): > 100 µM
CC50 at 4 days (in vitro [22]): > 100 µM
EC50 [7, 30]: 6.7 µM
EC90 [7, 30]: 35.8 µM
CC50 at 3 days (in vitro [14]): > 100 µM
EC50 [9]: > 100 µM
Caco-2 Unbound Cmax/EC50 ([10]; Caco-2): 0.003
CC50 at 3 days (in vitro [15]): > 100 µM

Iota-Carrageenan
EC90 [3]: 1.9 µM
CC50 (Caco-2 cells): > 100 µM
CC50 (CCRF-CEM cells [26]): 95.9 µM
absolute risk reduction ([23]; topical nasal spray, 300 hospital personnel): 4%
CC50 (Huh-7 cells [27]): > 100 µM
EC90 [7]: 1.6 µM
EC90 ([10]; Caco-2): 93.3 µM
CC50 (Calu-3 cells): > 100 µM
CC50 [28]: > 100 µM

Ivermectin
EC50 [3]: 6.2 µM
EC90 [3]: 9.3 µM
Fun (unbound fraction of drug in plasma) [12, 31]: 0.07
CC50 (Caco-2 cells): 5.8 µM
CC50 (CCRF-CEM cells [26]): 12 µM
PBM CC50 {Unbound} [13]: 29.2 {23.8} μM
CC50 (Huh-7 cells [27]): 5.6 µM
EC50 [7]: 2.1 µM
EC90 [7]: 4.5 µM
CC50 (Vero CCL-81 cells): 35.2 µM
Vero CC50 {Unbound} (Vero CCL-81 cells): 35.2 {31.9} μM
Caco-2 Unbound Cmax/EC50 ([10]; Caco-2): 0.005
EC90 ([10]; Caco-2): 8.9 µM
EC50 ([10]; read-out: Caco-2 SARS-CoV-2 EC50): 4.5 µM
CEM CC50 {Unbound} (CCRF-CEM cells [16]): 12 {9.5} μM
CC50 (Calu-3 cells): 17.5 µM
Huh7 CC50 {Unbound} (Huh-7 cells [17]): 5.6 {5.1} μM
CC50 [28]: 29.2 µM
